Experimental findings from PubChem BioAssay (NCI) are described below.

The TGI is the concentration giving total growth inhibition. Low readings indicate greater sensitivity of the cells, high ones lower sensitivity of the cells. The GI50 is the concentration at which growth is held to half of that of the control.

“And” between values parts separate entries of the source, which are not always exact repeats. Identical values can stand only once.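 48-hour exposure; five concentrations; linearly interpolated endpoints. GI50 is the concentration that inhibits growth by half. The concentration for full growth arrest is given as TGI.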 Where only a bound is given, the exact number is not on record here.

Some test systems named below: KM20L2 colon; SR leukemia; M14 melanoma; 786-0 renal; SNB-75 CNS; DLD-1 colon; SN12C renal; NCI-H23 lung; BT-549 breast; NCI/ADR-RES ovarian.
What all share (assay): DTP human tumour cell line panel, 48 h

Turning to `COC(=O)C1=C(\O)C[C@@]2(C)CC[C@@H](C(=O)OC)C2C/C=C\1C(=O)OC` (some centres undefined), the TGI with KM20L2 colon, with SR leukemia, in the experiment with M14 melanoma, in the experiment with 786-0 renal, with SNB-75 CNS and in the experiment with DLD-1 colon was greater than 100 µM throughout. The concentration for total growth inhibition (TGI) in the experiment on SN12C renal was greater than 100 µM.

On to `O=C(NC1C(=O)NNC1c1ccccc1Cl)c1ccccc1` (centres undefined), for which the total growth inhibition concentration (TGI) with KM20L2 colon, with SR leukemia, in the experiment on NCI-H23 lung, in the experiment with M14 melanoma, with 786-0 renal and in the experiment on SNB-75 CNS was greater than 100 µM throughout. In addition, the total growth inhibition concentration (TGI) in the experiment with DLD-1 colon and in the experiment with SN12C renal was greater than 100 µM in each case.

For the compound `CCCCC(C(=O)CCC(=O)Nc1ccc(Cl)cc1)C(=O)C(C)C` (centres undefined), the TGI in the experiment with KM20L2 colon, in the experiment with SR leukemia, in the experiment with NCI-H23 lung, in the experiment with M14 melanoma, in the experiment on 786-0 renal and in the experiment on SNB-75 CNS was greater than 100 µM in each case. Also, the TGI with DLD-1 colon and with SN12C renal was greater than 100 µM in each case.

On to `Nc1ccc(C(=O)Nc2ccccc2N)cc1`, for which the TGI was greater than 100 µM with BT-549 breast; 19.6 µM in the experiment with NCI/ADR-RES ovarian; greater than 100 µM with SR leukemia; greater than 100 µM in the experiment on NCI-H23 lung; greater than 100 µM in the experiment on M14 melanoma; greater than 100 µM with 786-0 renal. The TGI is greater than 93.1 µM in the experiment on SNB-75 CNS, greater than 100 µM with DLD-1 colon and greater than 100 µM in the experiment on SN12C renal.

With `COc1c(C)c(O)c2c(c1C)OC(c1ccccc1)CC2=O` (centres undefined), the TGI in the experiment on KM20L2 colon is greater than 100 µM; in the experiment with SR leukemia, 75.5 µM; in the experiment with NCI-H23 lung it was greater than 100 µM; with M14 melanoma, greater than 100 µM; with 786-0 renal, greater than 100 µM; with SNB-75 CNS it was greater than 100 µM. For the same compound, the TGI in the experiment with DLD-1 colon and in the experiment with SN12C renal was greater than 100 µM in each case.

As to `Nc1nc2ncn(CC(O)COC(=O)c3ccccc3)c2c(=O)[nH]1` (centres undefined), the TGI with KM20L2 colon, in the experiment on SR leukemia, with NCI-H23 lung, with M14 melanoma, with 786-0 renal and with SNB-75 CNS was greater than 100 µM in each case. Besides, the TGI with DLD-1 colon and in the experiment on SN12C renal was greater than 100 µM throughout.

For `CC1CC(c2ccc(Cl)c(Cl)c2)=Nc2ccccc2S1` (centres undefined), the TGI in the experiment on KM20L2 colon, with SR leukemia, with NCI-H23 lung, in the experiment on M14 melanoma, in the experiment with 786-0 renal and in the experiment with SNB-75 CNS was greater than 100 µM in each case. In addition, the TGI in the experiment on DLD-1 colon and in the experiment with SN12C renal was greater than 100 µM throughout.

As for `COC(=O)/C(=N/NC(C)(C)C)C(C(=O)OC)C(=O)C(=O)Nc1nc2ccc([N+](=O)[O-])cc2s1` (centres undefined), the TGI in the experiment on KM20L2 colon, in the experiment on SR leukemia, in the experiment with NCI-H23 lung, in the experiment on M14 melanoma, in the experiment with 786-0 renal and in the experiment on SN12C renal was greater than 100 µM throughout.

Consider `NCC1(N2CCOCC2)C2CCCC21CNc1ccccc1` (centres undefined), for which the TGI with SR leukemia, in the experiment on NCI-H23 lung, in the experiment with M14 melanoma, in the experiment with 786-0 renal, with SNB-75 CNS and in the experiment with DLD-1 colon was greater than 100 µM each time. The compound also gave a total growth inhibition concentration (TGI) in the experiment on SN12C renal greater than 100 µM.

Consider `N#CC1C(=O)NC(=O)C1=O` (centres undefined), for which the TGI in the experiment with KM20L2 colon, in the experiment with NCI-H23 lung, in the experiment with M14 melanoma, in the experiment on 786-0 renal, in the experiment on SNB-75 CNS and with SN12C renal was greater than 100 µM throughout.

`N#Cc1cn(-c2c3ccccc3nc3ccccc23)c(=O)[nH]c1=O`: the concentration for total growth inhibition (TGI) is 32.2 µM in the experiment on KM20L2 colon; 24.6 µM in the experiment with SR leukemia; 28.5 µM with M14 melanoma; 13.5 µM in the experiment on 786-0 renal; 33.3 µM with SNB-75 CNS; greater than 100 µM in the experiment with DLD-1 colon.

As to `N#Cc1ccc(/C=C/C(=O)c2ccccc2)cc1`, the GI50 in the experiment with BT-549 breast is 15.2 µM and 16.7 µM; in the experiment on NCI/ADR-RES ovarian, 22.8 µM and 24.2 µM; in the experiment on SR leukemia, 1.88 µM and 1.52 µM; in the experiment on NCI-H23 lung it was 10.8 µM and 15.4 µM; in the experiment with M14 melanoma, 11.3 µM and 13.4 µM; in the experiment with 786-0 renal, 15.9 µM and 14.6 µM. Besides, the GI50 with SNB-75 CNS was 14.5 µM and 13.9 µM; with SN12C renal, 14.8 µM and 14.2 µM. In addition, the total growth inhibition concentration (TGI) in the experiment with BT-549 breast was 29.3 µM and 30.5 µM; in the experiment on NCI/ADR-RES ovarian, 54.8 µM and 69.8 µM; in the experiment with SR leukemia it was 6.11 µM; in the experiment with NCI-H23 lung, 24.3 µM and 33.2 µM; with M14 melanoma, > 50.5 µM and 27.8 µM; in the experiment on 786-0 renal, > 52.2 µM and 29.2 µM. For the same compound, the TGI in the experiment on SNB-75 CNS was 27.6 µM and 27.5 µM; with SN12C renal, 28.3 µM and 27.7 µM.

`CC12CC(=O)C3C(CCC4=CC(=O)CCC43C)C1CC=C2CC(=O)O` (centres undefined): the total growth inhibition concentration (TGI) in the experiment with BT-549 breast, in the experiment on NCI/ADR-RES ovarian, in the experiment with SR leukemia, with NCI-H23 lung, with M14 melanoma and in the experiment on 786-0 renal was greater than 100 µM each time. Moreover, the TGI with SNB-75 CNS and with SN12C renal was greater than 100 µM throughout.

On to `COC(=O)c1ccc2c(C(=Nc3ccc(N(C)C(=O)CN4CCN(C)CC4)cc3)c3ccccc3)c(O)[nH]c2c1`, for which the GI50 in the experiment on BT-549 breast was 6.6 µM and 11.7 µM; in the experiment with NCI/ADR-RES ovarian, 14.4 µM and > 32.7 µM; in the experiment on SR leukemia, 2.5 µM; with NCI-H23 lung, 5.23 µM and 6.98 µM; with M14 melanoma it was 1.75 µM and 1.98 µM; in the experiment on 786-0 renal, 1.93 µM and 1.47 µM. For the same compound, the GI50 with SNB-75 CNS was 0.385 µM and 0.32 µM; in the experiment with SN12C renal, 1.23 µM and 0.959 µM. Moreover, the total growth inhibition concentration (TGI) in the experiment on BT-549 breast is 22 µM and 29.7 µM; in the experiment with NCI/ADR-RES ovarian, greater than 100 µM; with SR leukemia, greater than 44.7 µM; in the experiment on NCI-H23 lung, 28.4 µM and > 100 µM; with M14 melanoma, 3.56 µM and 3.98 µM; with 786-0 renal, 6.6 µM and 4.64 µM. The concentration for total growth inhibition (TGI) was 9.71 µM and 7.71 µM in the experiment on SNB-75 CNS; 31.9 µM and > 87.6 µM in the experiment on SN12C renal.

`CC(C)COC(c1ccc2c(c1)OCO2)C(C)Br` (centres undefined): the total growth inhibition concentration (TGI) was greater than 100 µM in the experiment on BT-549 breast; 90.2 µM with NCI/ADR-RES ovarian; 46.1 µM in the experiment on SR leukemia; 72.9 µM with NCI-H23 lung; 50.9 µM with M14 melanoma; 62.3 µM with 786-0 renal. Moreover, the results for the TGI with SNB-75 CNS and in the experiment on SN12C renal were 55.7 µM and 45 µM, respectively.
